Experiments:
[1] = test system: choline mobilization via the Kennedy pathway; test: Choline, phosphocholine and phosphatidylcholine content of LPS-stimulated BMDM (NMR, MS); assay type: cell-based, mouse; conditions: RSM932A-pretreated BMDM, LPS 4 hr
Procedure: Choline and Phosphocholine Analysis by NMR—BMDM were treated with LPS for 4 hr and then were collected and processed for NMR analysis as described (Guma et al., 2015a; Tiziani et al., 2009). Polar metabolite isolation was performed using a modified Bligh-Dyer procedure (Wu et al., 2008). Extracts were dried using a CentriVap refrigerated vacuum concentrator (Labconco, Kansas City, MO, USA). Dried extracts were reconstituted in 100 mM phosphate buffer (pH 7.0) prepared in 10% H2O/90% D2O (Sigma) that contained 0.5 mM sodium 3-(trimethylsilyl)propionate-2,2,3,3,-d4 (TMSP) as the internal standard. One-dimensional ^1H NMR spectra were acquired on a Bruker Avance III 500 MHz with 1.7 mm TCI MicroCryoProbe system (Bruker BioSpin Corp., Billerica, MA) equipped with an autosampler at 300 K and processed as previously described (Lodi et al., 2017; Lu et al., 2017; Ludwig and Gunther, 2011). Metabolite assignment and quantification were performed using the Chenomx 8.2 NMR Suite (Chenomx Inc., Edmonton, Alberta, Canada), the Birmingham Metabolite Library (Ludwig et al., 2012), and the Human Metabolome Database (Wishart et al., 2012).
Total phosphatidylcholine and mitochondrial lipids analysis by mass spectrometry—Total phosphatydilcholine (PC) analysis was measured in RSM932A-pretreated BMDM stimulated with LPS for 4 hr, while mitochondrial lipids were measured in mitochondria isolated from BMDM cultured in control or choline deficient medium and subjected to different treatments for 24 hr. Samples were processed for UHPLC-MS/MS analysis and analysis was performed on a hybrid quadrupole-Orbitrap mass spectrometer (Q Exactive, Thermo Scientific, Bremen, Germany) coupled to an Accela 1250 UHPLC system equipped with a quaternary pump, vacuum degasser, and open autosampler with temperature controller (6° C.; Fisher Scientific, San Jose, CA, USA). […]

BMDM = test: Mitochondrial membrane potential (TMRM); assay type: cell-based, mouse; conditions: RSM932A-pretreated, LPS-primed; at least as effectively as CCCP
Procedure: Mitochondrial Function—Mitochondrial membrane potential (Ψm) was measured using TMRM (#T668, Life Technologies) according to manufacturer's instructions. Briefly, RSM932A-pretreated BMDM and shCtrl and shChoKα iBMDM were primed with LPS for 4 hr. Cells were stained with 200 nM TMRM for 30 min at 37° C., and then treated with CCCP (5 μM) for 5 min. After washing twice, fluorescence intensity was determined per manufacturer's instructions using a FilterMax F5 multimode plate reader (Molecular Devices), Mitochondrial reactive oxygen species (mtROS) was measured using MitoSOX (Invitrogen) as described (Zhong et al., 2016c). […] After washing with PBS, fluorescence intensity was determined at 510/580 nm using a FilterMax F5 plate reader. NAD^+/NADH ratio was measured using NAD^+/NADH Cell-Based Assay kit according to manufacturer's instructions (Cayman Chemical Company). […] Absorbance was measured at 450 nm using FilterMax F5 plate reader. Complex V ATP synthase activity was measured in mitochondria isolated from BMDM treated with LPS for 24 hr using Complex V Activity Assay kit (Cayman Chemical Company) according to manufacturer's instructions. Absorbance was measured at 340 nm at 30-second intervals for 30 min using a FilterMax F5 plate reader. Cellular ATP was measured after 24 hr LPS stimulation using CellTiter-Glo Luminescent Assay (Promega) as described (Ip et al., 2017). […]

Compound: C/[N+](c1ccc(Cl)cc1)=c1\ccn(Cc2ccc(-c3ccc(Cn4cc/c(=[N+](/C)c5ccc(Cl)cc5)c5ccccc54)cc3)cc2)c2ccccc12 [RSM932A]
- LPS-induced increase in cellular content of phosphocholine, glycerol-3-phosphocholine and phosphatidylcholine (PC) [1]: blocked
- mitochondrial membrane potential (Ψm) (BMDM): reduced

Reference: patent US12458659B2, “Methods for treating macrophage-mediated diseases, and methods of identifying agents useful therefore” (The Regents of the University of California, priority 2019, dated 2025)
